Test results published in US8263757B2, “Promiscuous HER-2/Neu CD4 T cell epitopes” (Dendreon Corporation, priority 2006, dated 2012).

Test system: T cell clone HER500.23c21
Assay: HLA-DR restriction: blocking anti-MHC class II antibodies in HERp270-284 stimulation of HER500.23c21 (IFNγ ELISA)
Assay type: cell-based, human
Conditions: antibody blocking with anti-HLA-DR and anti-HLA-DP/-DQ
Method: FIG. 3. HLA-DR Restriction. Autologous EBV-LcL at 2×10^5 cells/mL and HERp270-284 was used to stimulate the T cell clone HER500.23c21 (1×10^5 cells/well), with and without the addition of blocking anti-MHC class II antibodies. Anti-HLA-DR ♦ and anti-HLA-DQ/anti-HLA-DP ▪ were titrated at the concentrations shown in cRPMI+10% FBS. Wells also contained EBV-LcLs, HER500.23c21T cell clone and peptide (1 μg/mL). Assay was incubated for 48 hours at 37° C. with 5% CO2. Supernatants were harvested and frozen at −20° C. and at a later date, analyzed for IFNγ production using ELISA. Multiple experiments were performed, mean triplicate values for one representative experiment is shown.
HLA-DR Restriction and Promiscuity. To determine HLA-DR restriction of the T cell epitope HERp270-284, anti-HLA-DR mAb L243, HLA-DQ mAb 1a3 or HLA-DP mAb B7/21 (20-1.25 μg/mL) were cultured with T cell clone HER.23c21, peptide HERp270-284 and autologous EBV-LcL in cRPMI+10% FBS media. Supernatants were harvested after 48 hours and tested for IL-2 and IFNγ production. […]
In order to determine which HLA molecules were responsible for presenting HERp270-284 to HER500.23c21, HLA-blocking antibodies were used to inhibit presentation and T cell activation. […] T cell stimulation was determined by IFNγ production.

Sequence: ALVTYNTDTFESMPN (HER-2/Neu peptide 270-284, HER500 peptide #63, HERp270-284, HER-2/Neu epitope 270-284, residues 3-17 of SEQ ID NO1) [Peptide 63]
- HLA restriction of HER500.23c21 recognition: HLA-DR restricted
